{
  "source": "patent US12691130B2",
  "about": "“Compositions and methods for improving cognitive function” (Diamond Therapeutics Inc., priority 2019, dated 2026)",
  "key": {"5-HT2A receptor": {"target": "5-HT2A receptor (Rattus norvegicus, UniProt P14842)", "sequence (P14842 whole entry)": "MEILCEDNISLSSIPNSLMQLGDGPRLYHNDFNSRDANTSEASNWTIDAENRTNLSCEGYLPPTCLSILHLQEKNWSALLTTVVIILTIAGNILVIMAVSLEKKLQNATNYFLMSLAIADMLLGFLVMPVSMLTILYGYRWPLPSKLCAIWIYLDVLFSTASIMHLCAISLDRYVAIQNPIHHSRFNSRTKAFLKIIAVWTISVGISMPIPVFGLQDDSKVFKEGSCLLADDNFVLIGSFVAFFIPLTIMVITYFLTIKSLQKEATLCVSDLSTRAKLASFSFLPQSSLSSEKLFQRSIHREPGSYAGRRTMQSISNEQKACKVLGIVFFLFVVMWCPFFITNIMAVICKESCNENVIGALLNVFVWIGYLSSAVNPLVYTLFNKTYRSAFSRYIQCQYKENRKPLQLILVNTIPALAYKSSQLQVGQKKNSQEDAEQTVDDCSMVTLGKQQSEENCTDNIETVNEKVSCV", "experiment": "Dose finding: behavioral syndrome, wet dog shakes (WDS) and back muscle contractions (BMC)", "details": "rats", "method": "The total number (N) of wet dog shakes (WDS) and back muscle contractions (BMC) is plotted against dose (mg/kg).\nPsilocybin was tested at a dose range of 0.03-10.0 mg/kg administered sub-cutaneously (S.C.) Behavioral syndrome including wet dog shakes (WDS) and back muscle contractions (BMC) are characteristic of 5-HT2A receptor activity and potentially indicative of psychomotor signs. […] There is a parallel between behaviors such as WDS in rats and hallucination in humans (Behavioral Neurobiology of Psychedelic Drugs, Halberstadt, Adam, Vollenweider, Franz X., Nichols, David E. (Eds.), Springer, 2018, p 161)."}, "Long Evans rats [1]": {"test_system": "Long Evans rats", "experiment": "5CSRTT with 10 s ITI, premature (PREM) and perseverative (PSV) responses", "type": "in vivo", "details": "0.05 mg/kg S.C., 24 rats", "method": "A) Graphs show increase in PREM and PSV responses under a 5 second inter-trial interval (ITI) which establishes a baseline (Base) and a 10 second ITI across 24 animals across two doses of psilocybin (0.05 mg/kg and 0.1 mg/kg). Standard deviation is indicated by error bars; asterisks (*) indicate significance vs. vehicle (P=0.05) using T-test. B) Graphs show effects of psilocybin on PREM and PSV in low performer and high performer subgroups. Standard error of the mean is indicated by error bars; asterisks (*) indicate significance vs. vehicle (P<0.01) using T-test. High performers are defined as rats with the highest tertile of premature responses in the baseline test; low performers are rats with the bottom tertile of premature responses in the baseline test.\nExperiments were conducted to test psilocybin doses in the range of 0.05-0.2 mg/kg psilocybin administered S.C. across progressive ratio (PR) and 5-choice serial reaction time task (5CSRTT) to examine the effect of psilocybin on endophenotypes of motivation and attention. In each study, a population of out-bred Long Evans rats was first tested as a group for response to the PR and 5CSRTT. Each group was then divided into sub-groups by tertiles according to performance, and then exposed to various dose levels immediately prior to re-testing at various psilocybin dose levels. […]"}, "[2]": {"experiment": "Psilocybin plasma pharmacokinetics after s.c. psilocybin", "type": "in vivo", "details": "rats", "method": "Psilocybin doses of 0.05, 0.1, 1, 10 mg/kg were used to evaluate psilocybin and psilocin PK in rats.\nDetails of the plasma concentration studies are shown in Tables 1-8 (psilocybin) and 9-16 (psilocin). Values in italics are below the lower level of quantitation (BLQ, <1 ng/mL) but were included in calculations. Values in bold and underlined are considered to be outliers and were omitted from calculations. Measured dosing solution concentrations were 0.0460, 0.0967, 0.948 and 9.65 mg/mL for 0.05, 0.1, 1 and 10 […]."}, "rats": {"test_system": "rats", "experiment": "Dose finding: locomotor activity (distance travelled)", "type": "in vivo", "from_the_text": "Stimulant drugs cause far larger increases in distance travelled with escalating doses, reflective of a direct motor stimulant property not seen with psilocybin."}, "Long Evans rats [3]": {"test_system": "Long Evans rats", "experiment": "Progressive ratio (PR) test of motivation", "type": "in vivo", "method": "High responders are defined as rats completing the highest tertile of lever presses in the baseline test; low responders are rats completing the bottom tertile of lever presses in the baseline test. Asterisk (*) indicates statistical significance between high and low responders.\n(§1) Experiments were conducted to test psilocybin doses in the range of 0.05-0.2 mg/kg psilocybin administered S.C. across progressive ratio (PR) and 5-choice serial reaction time task (5CSRTT) to examine the effect of psilocybin on endophenotypes of motivation and attention. In each study, a population of out-bred Long Evans rats was first tested as a group for response to the PR and 5CSRTT. Each group was then divided into sub-groups by tertiles according to performance, and then exposed to various dose levels immediately prior to re-testing at various psilocybin dose levels.\nThe PR test is used to answer how willing the test subject is to work for food (i.e. test of motivation). A single 45 mg food pellet (i.e. reinforcer) is made available to the test animal based on lever press response. To obtain each successive pellet, the animal must make increasingly more lever presses. Typically, a progression of 2, 4, 6, 9, 12, 15, 20, 25, 32, 40, 50, 62, 77, 95, 118, etc. is used, derived from the equation: […]\nAt some point, the animal gives up as the motor demands to obtain a single pellet are not deemed worthwhile (i.e. animal reaches “break point” defined as animal's failure to earn a food pellet in 20 minutes).\nPsilocybin was administered to rats S.C. at doses of 0.05, 0.1 and 0.2 mg/kg.\nRats were then sub-grouped into tertiles based on the number of lever presses for food at baseline, so that within the test population of 36 animals, 12 animals were identified as low responders, characterized by low motivation and potentially corresponding to low motivation endophenotype representative of clinical depression. Twelve animals were identified as high responders. There was a statistically significant difference between the high and low responders. […] This represents a motivational enhancing effect of psilocybin in the cohort corresponding to a low motivation endophenotype representative of clinical depression."}, "Long Evans rats [4]": {"test_system": "Long Evans rats", "experiment": "5-choice serial reaction time task (5CSRTT), standard conditions, 5 s ITI", "type": "in vivo", "method": "Asterisk (*) indicates statistical difference vs. vehicle. […] High performers are defined as rats completing the highest tertile of Hits or Correct nose-pokes in the baseline test; low performers are rats completing the bottom tertile of Hits or Correct nose-pokes in the baseline test.\nAsterisk (*) indicates statistical significance vs. vehicle.\nas §1\nThe 5CSRTT involves evaluating test subject response to a brief visual stimulus (Higgins, Guy & Silenieks, Leonardo. (2017). Rodent Test of Attention and Impulsivity: The 5-Choice Serial Reaction Time Task: The 5-Choice Serial Reaction Time Task. 10.1002/cpph.27). Animals are trained to make a nose-poke response to a stimulus location in order to collect a food reward. The task allows the experimenter to measure animal performance in multiple domains including: • Attention • Impulsivity • Perseveration • Speed of response\nA strength of the test is its flexible configuration to challenge test subjects: • Standard test conditions (0.75 s stimulus duration (SD), 5 s inter-trial interval (ITI), 100 trials) • Multiple short stimulus duration (mSD) (0.03-1 s SD) • Fixed long ITI (5 s vs. 10 s ITI) • Multiple ultrashort ITI (2-5 s ITI) • Extended 250 trials\nAsterisk (*) indicates statistical significance vs. vehicle. (FIG. 3A).\nWhen this population is segmented into tertiles according to performance based on accuracy (% correct, calculated as #correct/(#correct+ #incorrect)*100), the lowest performing tertile (N=8) are considered to be low attentive and potentially representative of a low attentive endophenotype of depression (FIG. 6A). Low attentive rats also score poorly on % hit (FIG. 6B) and have a slower response speed (FIG. 6D). […] Asterisk (*) indicates statistical significance vs. vehicle."}},
  "note": "Entries after “also recorded” stand apart in the source; their conditions may differ.",
  "data": [
    {"molecule": "CN(C)CCc1c[nH]c2cccc(OP(=O)(O)O)c12", "note": "[psilocybin, 4-phosphoryloxy-N,N-dimethyltryptamine]", "values": [
      {"measurement": "signs of behavioral syndrome (WDS, BMC)", "setting": "5-HT2A receptor; 0.3 mg/kg I.P and higher", "result": "significant signs of behavior syndrome"},
      {"measurement": "signs of behavioral syndrome (WDS, BMC)", "setting": "5-HT2A receptor; 0.03-0.1 mg/kg S.C.", "result": "no signs of behavioral syndrome"},
      {"measurement": "PREM and PSV responses", "setting": "Long Evans rats [1]", "result": "an increase (p=0.05, t-test) increase in PREM and PSV responses"},
      {"measurement": "AUC0-tlast, psilocybin, Mean", "setting": "[2]; 0.05 mg/kg s.c.", "result": 10.7, "unit": "ng·h/mL"},
      {"measurement": "Cmax, psilocybin, Mean", "setting": "[2]; 0.05 mg/kg s.c.", "result": 18.9, "unit": "ng/mL"},
      {"measurement": "Cmax/Dose, psilocybin, Mean", "setting": "[2]; 0.05 mg/kg s.c.", "result": 377, "unit": "kg·ng/mL/mg"},
      {"measurement": "tmax, psilocybin, Mean", "setting": "[2]; 0.05 mg/kg s.c.", "result": 36, "unit": "min"},
      {"measurement": "AUC0-tlast, psilocybin, Mean", "setting": "[2]; 0.1 mg/kg s.c.", "result": 11.4, "unit": "ng·h/mL"},
      {"measurement": "Cmax, psilocybin, Mean", "setting": "[2]; 0.1 mg/kg s.c.", "result": 31.4, "unit": "ng/mL"},
      {"measurement": "Cmax/Dose, psilocybin, Mean", "setting": "[2]; 0.1 mg/kg s.c.", "result": 314, "unit": "kg·ng/mL/mg"},
      {"measurement": "tmax, psilocybin, Mean", "setting": "[2]; 0.1 mg/kg s.c.", "result": 19.3, "unit": "min"},
      {"measurement": "AUC0-inf, psilocybin, Mean", "setting": "[2]; 1.0 mg/kg s.c.", "result": 47.9, "unit": "ng·h/mL"},
      {"measurement": "AUC0-inf/Dose, psilocybin, Mean", "setting": "[2]; 1.0 mg/kg s.c.", "result": 47.9, "unit": "kg·ng·h/mL/mg"},
      {"measurement": "AUC0-tlast, psilocybin, Mean", "setting": "[2]; 1.0 mg/kg s.c.", "result": 53.1, "unit": "ng·h/mL"},
      {"measurement": "Apparent t1/2, psilocybin, Mean", "setting": "[2]; 1.0 mg/kg s.c.", "result": 26.7, "unit": "min"},
      {"measurement": "Cmax, psilocybin, Mean", "setting": "[2]; 1.0 mg/kg s.c.", "result": 78.3, "unit": "ng/mL"},
      {"measurement": "Cmax/Dose, psilocybin, Mean", "setting": "[2]; 1.0 mg/kg s.c.", "result": 78.3, "unit": "kg·ng/mL/mg"},
      {"measurement": "MRT0-inf, psilocybin, Mean", "setting": "[2]; 1.0 mg/kg s.c.", "result": 44.8, "unit": "min"},
      {"measurement": "tmax, psilocybin, Mean", "setting": "[2]; 1.0 mg/kg s.c.", "result": 21.4, "unit": "min"},
      {"measurement": "AUC0-inf, psilocybin, Mean", "setting": "[2]; 10 mg/kg s.c.", "result": 2156, "unit": "ng·h/mL"},
      {"measurement": "AUC0-inf/Dose, psilocybin, Mean", "setting": "[2]; 10 mg/kg s.c.", "result": 216, "unit": "kg·ng·h/mL/mg"},
      {"measurement": "AUC0-tlast, psilocybin, Mean", "setting": "[2]; 10 mg/kg s.c.", "result": 1707, "unit": "ng·h/mL"},
      {"measurement": "Apparent t1/2, psilocybin, Mean", "setting": "[2]; 10 mg/kg s.c.", "result": 34, "unit": "min"},
      {"measurement": "Cmax, psilocybin, Mean", "setting": "[2]; 10 mg/kg s.c.", "result": 3595, "unit": "ng/mL"},
      {"measurement": "Cmax/Dose, psilocybin, Mean", "setting": "[2]; 10 mg/kg s.c.", "result": 359, "unit": "kg·ng/mL/mg"},
      {"measurement": "MRT0-inf, psilocybin, Mean", "setting": "[2]; 10 mg/kg s.c.", "result": 43, "unit": "min"},
      {"measurement": "tmax, psilocybin, Mean", "setting": "[2]; 10 mg/kg s.c.", "result": 30, "unit": "min"},
      {"measurement": "distance travelled", "setting": "rats; high doses", "result": "slightly decreased distanced travelled"},
      {"measurement": "increase in distance travelled", "setting": "rats; low doses", "result": "0.3-0.4 fold"},
      {"measurement": "PR food responding (lever presses, break point)", "setting": "Long Evans rats [3]; 0.05 mg/kg S.C., low responder subgroup (12 rats)", "result": "an increase in food responding in low responder subgroup; also recorded: Significant improvements"},
      {"measurement": "PR food responding", "setting": "Long Evans rats [3]; 0.1 mg/kg S.C., low responder subgroup (12 rats)", "result": "did not produce an increase in food responding"},
      {"measurement": "number of lever presses or break points (rewards earned)", "setting": "Long Evans rats [3]; 0.05, 0.1 and 0.2 mg/kg S.C., entire study population of 36 rats", "result": "None of these doses were observed to cause obvious changes in the number of lever presses or break points"},
      {"measurement": "PR response (lever presses)", "setting": "Long Evans rats [3]; 0.05-0.2 mg/kg S.C., high responder subgroup (12 rats)", "result": "no effect on response in high responder subgroup"},
      {"measurement": "detrimental effects on performance (motivation, motor control, attention, response speed)", "setting": "Long Evans rats [3]; PR 0.05-0.2 mg/kg and 5CSRTT 0.05-0.1 mg/kg S.C.", "result": "no detrimental effects of psilocybin were noted on performance"},
      {"measurement": "pro-cognitive effect, % hit", "setting": "Long Evans rats [4]; 0.05 mg/kg S.C., 24 rats, 75 s SD, 5 S ITI, 100 trials, vs. vehicle", "result": "increased (p=0.05, t-test) pro-cognitive effect"},
      {"measurement": "procognitive effect, % correct", "setting": "Long Evans rats [4]; 0.05 mg/kg S.C., 24 rats, standard conditions", "result": "slight non-significant increase in procognitive effect"},
      {"measurement": "response speed", "setting": "Long Evans rats [4]; 0.05 mg/kg, low attentive cohort, vs. vehicle", "result": "increased response speed in the low attentive cohort compared with vehicle; also recorded: Significant improvements"},
      {"measurement": "effect on accuracy (% correct and % hit)", "setting": "Long Evans rats [4]; 0.05 and 0.1 mg/kg, low attentive subgroup (N=8), vs. vehicle", "result": "strongly evident in the low attentive subgroup compared with vehicle; also recorded: Significant improvements"}
    ]}
  ]
}
